Results taken from patent US20250188123A1, “PROTEASE INHIBITORS” (Regents of the University of Minnesota, priority 2022, published 2025).
Read-outs that look alike come from different tables or passages of the source. *1 amine or outer side, *2 acyl side, *3 side chain or, on linkers, in order; H or OH if unused. Where a SMILES comes first, the peptide text is derived from it. [ ]: non-standard residue; d: D form. The star is where a group is joined. ξ: configuration not given here. X1 = Cc1ccc2c(c1)CCN([*:1])[C@@H]2C(=O)[*:2]; ξ(indoline-2-carboxyl) = O=C(O)C1Cc2ccccc2N1; ξTHIQ1CO(6-Me) = Cc1ccc2c(c1)CCNC2C(=O)O; X3 = O=C([C@@H]1Cc2ccccc2N1[*:1])[*:2]; Aad = N[C@@H](CCCC(=O)O)C(=O)O; Thr(3ξ) = CC(O)[C@H](N)C(=O)O; Tle = CC(C)(C)[C@H](N)C(=O)O; Bn = c1ccc(C*)cc1

Columns and labels:
[1] = target: T1, human caspase-3 (Homo sapiens, UniProt P42574); assay: Fluorescent enzyme assay, Casp3 (AFC substrate AcDEVD-AFC); assay type: biochemical
T1 construct: made in house; host or cells: E. coli Rosetta 2 pLysS DE3
T1 sequence (P42574 29-277): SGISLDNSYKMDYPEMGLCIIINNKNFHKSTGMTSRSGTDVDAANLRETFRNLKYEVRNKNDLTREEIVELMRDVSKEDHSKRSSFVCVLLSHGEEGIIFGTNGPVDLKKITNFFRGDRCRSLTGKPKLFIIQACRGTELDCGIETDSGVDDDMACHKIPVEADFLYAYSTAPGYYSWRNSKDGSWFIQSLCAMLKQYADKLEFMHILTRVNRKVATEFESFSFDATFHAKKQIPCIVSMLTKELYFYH
Description: (§1) Human recombinant Casp1, 6, 7, and 9 were purchased from BioVision (Milpitas/CA, USA). AFC fluorogenic substrates and control peptides (AcYVAD-CHO, AcVDVAD-CHO, AcDEVD-CHO, AcVEID-CHO, and AcLEHD-CHO) were purchased from Bachem (Torrance/CA, USA). The pET23b vector encoding human caspase-3 was a gift of Dr. Michelle Arkin at University of California, San Francisco. Expression and purification of Casp3 was guided by previously described protocols (Denault J-B, Salvesen G S., Current Protocols in Protein Science, 2002, 30(1), 21.13. 1-21.13. 15). Briefly, the plasmid was transformed into E. coli Rosetta 2 pLyss DE3 cells that were cultured at 1 L scale in shake flasks. Five hours post induction with IPTG, cells were harvested through centrifugation (4000 g for 10 minutes at 4° C.), lysed by sonication, and centrifuged again for 30 minutes at 20000 g. Supernatant was resuspended in buffer (100 mM Tris pH 8.0, 500 mM NaCl). Purification was achieved by nickel-affinity chromatography followed by ion-exchange chromatography. Protein was diluted to 0.5 mg/mL and stored at −80° C. in 100 mM Tris, pH 8.0 supplemented with 10% glycerol. The typical yield for the expression, isolation, and purification was approximately 3 mg/L. The DNA encoding human caspase-2 (hCASP2, amino acids 170-452, free of the N-terminal caspase activation and recruitment domain) open reading frame (ORF) was amplified via polymerase chain reaction (PCR) from full-length hCASP2 cDNA (Origene, Rockville, MD; Cat #SC321316) using following primers: forward, 5′-[…]-3′; reverse, 5′-[…]-3′. The PCR fragment was then cloned into the pET23b vector (Millipore Sigma, Burlington, MA), and DNA sequence was verified by classic Sanger sequencing analyses. Site-directed mutageneses were carried out using a QuikChange II XL site-directed mutagenesis kit (Agilent Technologies, Santa Clara, CA; Cat #200522) according to the manufacturer's instruction. Expression of recombinant hCASP2 was induced using 150 μM isopropyl-β-D-thiogalactopyranoside (IPTG) (Promega, Madison, WI) in the BL21(DE3) E. coli strain (Millipore Sigma) at 16° C. for 14 hours while shaking at 250 rpm. Cells were then harvested via centrifugation at 6,000 g, 4° C. for 15 minutes, followed by lysis via sonication. Proteins were initially purified using HisPur Ni-NTA resin (Thermo Fisher Scientific, Waltham, MA) followed by metal chelating chromatography (5 mL HiTrap Chelating HP columns (GE Healthcare Life Sciences, Piscataway, NJ)). Further purification was carried out using anion exchange chromatography (5 mL HiTrap Q HP columns (GE Healthcare Life Sciences)) for hCASP2. Proteins were stored in 1× phosphate-buffered saline (pH 7.4) at 10 mg/mL (concentration determined using a BCA assay (Thermo Fisher Scientific)), −80° C. until further use.
(§2) KM values were determined experimentally to be the following: Casp1: 5.9 μM; Casp2: 37.1 μM; Casp3: 7.6 μM; Casp6: 14.5 μM; Casp7: 13.8 μM; Casp9: 149.1 μM. Enzymes were diluted in buffer: 100 mM MES (pH 6.5) for Casp2 and or 100 mM HEPES (pH 7.0) for all other caspases, plus 150 mM NaCl, 0.1% CHAPS, 1.5% sucrose, 10 mM DTT. Enzyme concentrations were 0.05 U/well for Casp1, 6, and 7; 0.5 U/well for Casp9, 20 nM/well for Casp2, and 2 nM/well for Casp3. Enzyme in buffer (19 μL) was added per well in a black 384-well Corning 4514 assay plate. Test compounds were serially diluted in dimethyl sulfoxide (DMSO) and plated in duplicate into a Corning 3656 transfer plate. Test compound was added to assay plates in 0.5 μL aliquots per well and mixed 10 times using a BiomekFX (Beckman Coulter). Compound and enzyme mixture was incubated at 37° C. for 5 minutes for aldehyde warheads and 45 minutes for cyano warheads. […]

[2] = target: T2, human caspase-2 (Homo sapiens, UniProt P42575); assay: Fluorescent enzyme assay, Casp2 (AFC substrate Z-VDVAD-AFC); assay type: biochemical; conditions: for Ki (Casp3) / Ki (Casp2): selectivity Casp2 over Casp3
T2 construct: inferred from pET23b, XhoI reverse primer without stop codon, Ni-NTA purification) (C); made in house; host or cells: E. coli BL21(DE3)
T2 sequence (P42575 170-452): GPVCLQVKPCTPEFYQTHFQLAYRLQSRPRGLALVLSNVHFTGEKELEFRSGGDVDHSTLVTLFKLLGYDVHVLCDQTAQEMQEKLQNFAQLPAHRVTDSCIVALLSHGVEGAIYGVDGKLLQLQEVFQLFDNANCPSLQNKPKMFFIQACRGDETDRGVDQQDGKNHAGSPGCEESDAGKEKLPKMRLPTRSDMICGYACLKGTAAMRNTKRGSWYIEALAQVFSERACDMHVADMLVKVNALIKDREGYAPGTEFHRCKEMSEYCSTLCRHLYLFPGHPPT
Description: as §1, §2

[3] = mean ± SEM of N independent experiments, each in duplicate or triplicate, read-out: pKi ± SEM Casp 3 (converted)
[4] = mean ± SEM of N independent experiments, each in duplicate or triplicate, read-out: pKi ± SEM Casp 2 (converted)

Row | Compound | Ki [1] [µM] | Ki [2] [µM] | Ki (Casp3) / Ki (Casp2) [2] | Ki [1, 3] [µM] | Ki [2, 4] [µM]
1 | Cc1ccc2c(c1)CCN(C(=O)[C@@H](NC(=O)[C@H](CCCC(=O)O)NC(=O)C1Cc3ccccc3N1)C(C)C)[C@@H]2C(=O)N[C@H](C=O)CC(=O)O (stereo partly drawn) [Compound 2, (S)-6-(((S)-1-((S)-1-(((S)-1-carboxy-3-oxopropan-2-yl)carbamoyl)-6-methyl-3,4-dihydroisoquinolin-2(1H)-yl)-3-methyl-1-oxobutan-2-yl)amino)-5-((S)-indoline-2-carboxamido)-6-oxohexanoic acid hydrotrifluoroacetate] (H-[ξ(indoline-2-carboxyl)][Aad]V[X1]D-aldehyde) | > 31.6 | 0.0398 | 794 | – | –
2 | Cc1ccc2c(c1)CCN(C(=O)CNC(=O)CNC(=O)[C@@H]1Cc3ccccc3N1)[C@@H]2C(=O)N[C@H](C=O)CC(=O)O [Compound 3, (S)-3-((S)-2-(((S)-indoline-2-carbonyl)glycylglycyl)-6-methyl-1,2,3,4-tetrahydroisoquinolin-1-carboxamido)-4-oxobutanoic acid hydrotrifluoroacetate] | – | – | – | > 100 | > 100
3 | Cc1ccc2c(c1)CCN(C(=O)CCCCNC(=O)[C@@H]1Cc3ccccc3N1)[C@@H]2C(=O)N[C@H](C=O)CC(=O)O [Compound 4, (S)-3-((S)-2-(5-((S)-indoline-2-carboxamido)pentanoyl)-6-methyl-1,2,3,4-tetrahydroisoquinoline-1-carboxamido)-4-oxobutanoic acid hydrotrifluoroacetate] | – | – | – | > 100 | > 100
4 | Cc1ccc2c(c1)CCN(C(=O)CNC(=O)[C@H](CCCC(=O)O)NC(=O)[C@@H]1Cc3ccccc3N1)[C@@H]2C(=O)N[C@H](C=O)CC(=O)O [Compound 5, (S)-6-((2-((S)-1-(((S)-1-carboxy-3-oxopropan-2-yl)carbamoyl)-6-methyl-3,4-dihydroisoquinolin-2(1H)-yl)-2-oxoethyl)amino)-5-((S)-indoline-2-carboxamido)-6-oxohexanoic acid hydrotrifluoroacetate] | 5.5 | 0.017 | 324 | – | –
5 | Cc1ccc2c(c1)CCN(C(=O)[C@@H](NC(=O)[C@H](CCCC(=O)O)NC(=O)[C@@H]1Cc3ccccc3N1)C(C)OCc1ccccc1)C2C(=O)N[C@H](C=O)CC(=O)O (stereo partly drawn) [Compound 6, (S)-6-(((2S,3S)-3-(benzyloxy)-1-((S)-1-(((S)-1-carboxy-3-oxopropan-2-yl)carbamoyl)-6-methyl-3,4-dihydroisoquinolin-2(1H)-yl)-1-oxobutan-2-yl)amino)-5-((S)-indoline-2-carboxamido)-6-oxohexanoic acid hydrotrifluoroacetate] (H-[X3][Aad][Thr(3ξ)](Bn)[ξTHIQ1CO(6-Me)]D-aldehyde) | 33.1 | 2.29 | 14 | – | –
6 | CC(=O)N1c2ccccc2C[C@H]1C(=O)N[C@@H](CCCC(=O)O)C(=O)NCC(=O)N1CCc2cc(C)ccc2[C@H]1C(=O)N[C@H](C=O)CC(=O)O [Compound 7, (S)-5-((S)-1-acetylindoline-2-carboxamido)-6-((2-((S)-1-(((S)-1-carboxy-3-oxopropan-2-yl)carbamoyl)-6-methyl-3,4-dihydroisoquinolin-2(1H)-yl)-2-oxoethyl)amino)-6-oxohexanoic acid] | – | – | 3388 | > 100 | 0.0295
7 | CC(=O)N1c2ccccc2C[C@H]1C(=O)N[C@@H](CCCC(=O)O)C(=O)N[C@H](C(=O)N1CCc2cc(C)ccc2[C@H]1C(=O)N[C@H](C=O)CC(=O)O)[C@H](C)OCc1ccccc1 [Compound 8, (S)-5-((S)-1-acetylindoline-2-carboxamido)-6-(((2S,3S)-3-(benzyloxy)-1-((S)-1-(((S)-1-carboxy-3-oxopropan-2-yl)carbamoyl)-6-methyl-3,4-dihydroisoquinolin-2(1H)-yl)-1-oxobutan-2-yl)amino)-6-oxohexanoic acid] | – | – | 17 | > 100 | 6.03
8 | CC(=O)N1c2ccccc2C[C@H]1C(=O)N[C@@H](CCCC(=O)O)C(=O)N[C@H](C(=O)N1CCc2cc(C)ccc2[C@H]1C(=O)N[C@H](C=O)CC(=O)O)C(C)C [Compound 9, (S)-5-((S)-1-acetylindoline-2-carboxamido)-6-(((S)-1-((S)-1-(((S)-1-carboxy-3-oxopropan-2-yl)carbamoyl)-6-methyl-3,4-dihydroisoquinolin-2(1H)-yl)-3-methyl-1-oxobutan-2-yl)amino)-6-oxohexanoic acid] | – | – | 263 | > 100 | 0.38
9 | CC(=O)N1c2ccccc2C[C@H]1C(=O)N[C@@H](CCCC(=O)O)C(=O)N[C@H](C(=O)N1CCc2cc(C)ccc2[C@H]1C(=O)N[C@H](C=O)CC(=O)O)C(C)(C)C [Compound 10, (S)-5-((S)-1-acetylindoline-2-carboxamido)-6-(((S)-1-((S)-1-(((S)-1-carboxy-3-oxopropan-2-yl)carbamoyl)-6-methyl-3,4-dihydroisoquinolin-2(1H)-yl)-3,3-dimethyl-1-oxobutan-2-yl)amino)-6-oxohexanoic acid] | – | – | 47 | > 100 | 2.14
10 | Cc1ccc2c(c1)CCN(C(=O)[C@@H](NC(=O)[C@H](CCCC(=O)O)NC(=O)[C@@H]1Cc3ccccc3N1)C(C)(C)C)C2C(=O)N[C@H](C=O)CC(=O)O (stereo partly drawn) [Compound 11, (S)-6-(((S)-1-((S)-1-(((S)-1-carboxy-3-oxopropan-2-yl)carbamoyl)-6-methyl-3,4-dihydroisoquinolin-2(1H)-yl)-3,3-dimethyl-1-oxobutan-2-yl)amino)-5-((S)-indoline-2-carboxamido)-6-oxohexanoic acid hydrotrifluoroacetate] (H-[X3][Aad][Tle][ξTHIQ1CO(6-Me)]D-aldehyde) | > 100 | 4.17 | 24 | – | –
11 | Cc1ccc2c(c1)CCN(C(=O)[C@@H](NC(=O)[C@H](CCCC(=O)O)NC(=O)[C@@H]1Nc3ccc(F)cc3C1(C)C)C(C)C)[C@@H]2C(=O)N[C@H](C=O)CC(=O)O [Compound 12, (S)-6-(((S)-1-((S)-1-(((S)-1-carboxy-3-oxopropan-2-yl)carbamoyl)-6-methyl-3,4-dihydroisoquinolin-2(1H)-yl)-3-methyl-1-oxobutan-2-yl)amino)-5-((R)-5-fluoro-3,3-dimethylindoline-2-carboxamido)-6-oxohexanoic acid hydrotrifluoroacetate] | > 100 | 4.17 | 24 | – | –
